In publication PMC12072186, “A Novel Small Molecule Enhances Stable Dopamine Delivery to the Brain in Models of Parkinson’s Disease” (International Journal of Molecular Sciences, 2025):

Columns and labels:
TgA53T mice = test: Tolerated dose, dose escalation study; format: in vivo
Method: Pegasus synthesis and the D5 control derivative of tetracycline were previously described. Pegasus is a 652.2 Da small molecule that consists of one DA conjugated to tetracycline via a molecular linker (Figure 1A). […] We determined a tolerated dose of Pegasus in young (6–7 months old) and old (11–12 months old) TgA53T mice (IP, once daily) treated with an ascending dose of Pegasus of 10 mg/kg, 50 mg/kg, and 75 mg/kg for 4 consecutive days (Figure 1B). Pegasus was tolerated up to 75 mg/kg without visible adverse effects. […] We then reduced the dose to 75 mg/kg for another week.
Tissue toxicity was assessed in young (6–7-month-old) and old (12–13-month-old) A53T mice. The mice received daily i.p. escalating doses of Pegasus or control D5 (tetracycline derivative with no DA) vs. DMSO of 10, 25, 50, and 100 mg/kg for 4 days with each dose up to 16 days, and tissues were analyzed via caspase-3 activity. The caspase-3 activity assay (EnzChek® Invitrogen, Waltham, MA, USA) was conducted according to manufacturer’s protocols as we previously described.

microglia (IBA1) = test: IBA1 immunohistochemistry of microglia; format: in vivo, mouse; details: young and old TgA53T mice, vs DMSO
From the text: (§1) Neuroinflammation is one of the most important pathogeneses in PD in addition to alpha-synuclein aggregation. To examine the effects of Pegasus on glial cell activation, we performed immunohistochemistry of astrocyte and microglia from the brains of treated vs. untreated young (6–7-month-old) and old (12–13-month-old) TgA53T mice.

[1] = system: MPTP-treated C57BL/6 mice; test: Grip strength test in MPTP-treated mice; format: in vivo, mouse; details: MPTP 25 mg/kg i.p. day 1–5; treatment day 1–13; vs MPTP vehicle control
Method: MPTP was injected to male C57BL/6 mice for 5 consecutive days (Figure 4A) to destroy DA neurons, and then the mice were treated with Pegasus alone or Pegasus + Benserazide compared to L-dopa alone or L-Dopa + Benserazide.
From day 1 to day 5, MPTP was administered to all the groups except Naive at a dose of 25 mg/kg, i.p., QD. Treatment with Pegasus alone (50 mg/kg, i.p., BID), a combination of Pegasus 50 mg/kg, BID + Benserazide 10 mg/kg, QD, or a combination of L-Dopa 10 mg/kg, QD + Benserazide 10 mg/kg, QD or standalone L-Dopa 10 mg/kg, QD, started on day 1 and continued until day 13. On day 13, after the first dose of Pegasus, 4 animals/time point from each group were sacrificed at 0.5, 1, 3, 6, and 12 h, and the blood and brains were collected.
The maximal muscle/grip strength of forelimbs was measured using a strength meter.

alpha-synuclein = system: alpha-synuclein; design: method as in PMID 38991155; details: cited from earlier work
human alpha-synuclein [2] = test: Human alpha-synuclein ELISA of brain lysates; format: in vivo, mouse; details: brain lysates of old (11–12-month-old) TgA53T mice, vs DMSO
Method: (§2) The concentration of CNS alpha-synuclein via ELISA was reduced in the brain lysates of old (11–12-month-old) TgA53T mice treated with Pegasus compared to DMSO-treated controls (Figure 5I).
The levels of DA and its metabolite HVA were measured using a commercially available ELISA (Cat No. MBS269234 and Cat# MBS1601074, MyBiosource, San Diego, CA, USA) on serum and brain tissue soluble extracts. Human alpha-synuclein was measured via a human-specific ELISA (Cat# 448607, BioLegend, San Diego, CA, USA) according to the manufacturer’s protocol.

astrocyte (GFAP) = test: GFAP immunohistochemistry of astrocytes; format: in vivo, mouse
Method: as §1
Animals were deeply anesthetized with a mixture of Xylazine and Ketamine (8:80 mg/kg), washed with normal saline for 1 min, and then perfused with 4% paraformaldehyde (PFA) for 15 min. The brains were dissected out and immediately stored in 4% PFA for 24 h at 4 °C, and then transferred to 30% sucrose at 4 °C for 48 h. The brains were cut using a cryostat microtome into 20 µm thick coronal sections and stored at −20 °C. Staining for tyrosine hydroxylase (TH) was probed with anti-tyrosine hydroxylase antibody (Cat No: AB152, Sigma-Aldrich, St. Louis, MO, USA). GFAP (glial fibrillary acidic protein) was stained with anti-GFAP monoclonal antibody (Cat No:MS1376P1, Fisher Scientific, Newington, NH, USA). […] TH^+ cells were counted in a stereology-like manner across multiple visual fields (typically 20 fields) in a single animal, and the same procedure was repeated on several animals to obtain the best approximation of TH staining.

[3] = Plasma binding by equilibrium dialysis; format: in vitro ADME; details: mouse, rat, dog, and human plasma
From the text: Many of the metabolites were formed after the amide cleavage of the parent, Pegasus, into the tetracycline or the DA scaffold and further biotransformation of those scaffolds. […] Both M8 and M11 are abundantly detected in the brain and the blood in rats and the relative abundance of brain–plasma is 318 and 131%, respectively. […] Furthermore, Pegasus is […] bound to mouse, rat, dog, and human plasma (Avg. 91–98%) using the equilibrium dialysis method.

human alpha-synuclein [4] = test: Western blot of soluble brain extracts for alpha-synuclein; format: in vivo, mouse; details: young TgA53T mice (6–7 months old), vs D5 and DMSO
Method: as §2
To extract the soluble proteins, whole brain tissues, which excluded the olfactory bulb, cerebellum, and spinal cord, were isolated and homogenized in 1 × STEN buffer (50 mM Tris (pH 7.6), 150 mM NaCl, 2 mM EDTA, 0.2% NP-40, 0.2% BSA, 20 mM PMSF, and protease cocktail inhibitor). The proteins were quantified and normalized for WB (and ELISA) on 4–12% Criterion™ XT Bis-Tris Protein Gel (Cat No: 3450125, Bio-rad, Hercules, CA, USA). Beta-actin (β-actin) was probed (1:3000) with monoclonal antibody (Cat No: MAB1501R, Emdmillipore, Danvers, MA, USA). Human alpha-synuclein was probed (1:4000) with monoclonal antibody (Cat No: AHB0261, Thermo Fisher, Waltham, MA, USA). Human oligomeric alpha-synuclein was probed (1:500) with anti-alpha-synuclein oligomer-specific syn33 antibody (Cat No: ABN2265, Sigma-Aldrich, St. Louis, MO, USA). WBs were quantified by densitometry using Quantity One 4.6.3 software (Bio Rad, Hercules, CA, USA) and Image J version 1.54m.

## C[C@H]1c2ccc(NC(=O)CCC(=O)NCCc3ccc(O)c(O)c3)c(O)c2C(=O)C2=C(O)[C@]3(O)C(=O)C(C(N)=O)=C(O)CC3[C@@H](O)C21 (stereo partly shown) [Pegasus]
TgA53T mice; 50 mg/kg, mice
  Visible side effects at 50 mg/kg: no visible side effects
TgA53T mice; 100 mg/kg, male and female 12–13 months old mice
  Adverse effects at 100 mg/kg: some scruffiness and weakness at Day16, and one mouse showed gut toxicity at autopsy
TgA53T mice; TgA53T, mouse, in vivo, ip, 4 days per dose level
  Tolerated dose: up to 75 mg/kg
TgA53T mice; dose reduced to 75 mg/kg for another week
  Adverse effects at autopsy after dose reduction: no adverse effects were detected
Microglia (IBA1)
  IBA1 staining in the hippocampus: No differences in IBA1 staining
[1]
  Forelimb grip strength: significantly reversed back to normal levels
alpha-synuclein
  Protective effect on alpha-synuclein in vitro: prevention of alpha-synuclein misfolding
Human alpha-synuclein [2]
  Concentration of CNS alpha-synuclein (ELISA): reduced
Astrocyte (GFAP); including the SN and cortex
  GFAP staining in other brain regions: not appreciably different
Astrocyte (GFAP); young (6–7-month-old) TgA53T mice, 50 mg/kg i.p., vs DMSO
  GFAP astrocyte reactivity in the hippocampus: significant reduction in astrocyte reactivity
[3]
  Plasma binding (Avg.): 91–98%
Human alpha-synuclein [4]
  Monomeric alpha-synuclein level (WB): significant decreases
  Oligomeric alpha-synuclein level (WB): significant decreases
